In PMC7802075 (ACS Infectious Diseases, 2020):
Where two headings read alike, the source gives them in different places.

Target: T1, LmjIPCS (inositol phosphorylceramide synthase from L. major) (Leishmania major, UniProt E9AFX2)
T1 sequence (E9AFX2 1-338): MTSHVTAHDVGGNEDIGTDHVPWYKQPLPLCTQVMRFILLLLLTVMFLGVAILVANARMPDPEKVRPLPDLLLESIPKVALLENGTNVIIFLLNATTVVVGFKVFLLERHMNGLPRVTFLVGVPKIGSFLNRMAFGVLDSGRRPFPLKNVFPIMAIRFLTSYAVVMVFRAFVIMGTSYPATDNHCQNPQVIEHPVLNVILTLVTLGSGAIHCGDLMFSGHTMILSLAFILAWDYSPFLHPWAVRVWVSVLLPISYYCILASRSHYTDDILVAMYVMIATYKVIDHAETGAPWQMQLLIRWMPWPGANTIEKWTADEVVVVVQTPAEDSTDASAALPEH
Assay: biochemical
Assay type: biochemical
Parameters: inhibition: dose or concentration left out as unconfirmed
Conditions: for inhibition at 20000 µM: read-out: 20mM inhibition LmjIPCS; for inhibition: read-out: inhibition LmjIPCS

[1] = NINDS set screen, single concentration printed as 20mM

Molecule `Cc1ncc([N+](=O)[O-])n1CC(C)O` (centres unmarked) [SECNIDAZOLE] has an inhibition at 20000 µM of 12%.

With `O=C1C=C2C=C[C@@H]3C[C@@]2(O1)[C@H]1CCCCN31` [SECURININE] the inhibition at 20000 µM was 11%.

`CO[C@H]1C[C@H](O[C@@H]2/C(C)=C/C[C@@H]3C[C@@H](C[C@]4(CC[C@H](C)[C@@H](C5CCCCC5)O4)O3)OC(=O)[C@@H]3C=C(C)/C(=N/O)[C@H]4OC/C(=C\C=C\[C@@H]2C)[C@]43O)O[C@@H](C)[C@@H]1O` [SELAMECTIN] was tested, and the “20mM inhibition LmjIPCS” value was 45%.

`CC1CCC(NC(=O)N(CCCl)N=O)CC1` (centres unmarked) [SEMUSTINE] gave an inhibition at 20000 µM of 15%.

In the case of `O=C(O)c1cc(O)c2c(c1)[C@H]([C@H]1c3cc(C(=O)O)cc(O)c3C(=O)c3c(O[C@@H]4O[C@H](CO)[C@@H](O)[C@H](O)[C@H]4O)cccc31)c1cccc(O[C@@H]3O[C@H](CO)[C@@H](O)[C@H](O)[C@H]3O)c1C2=O` [SENNOSIDE A], the “20mM inhibition LmjIPCS” value is reported as 62%.

`COc1cc(C2Oc3cc([C@H]4Oc5cc(O)cc(O)c5C(=O)[C@@H]4O)ccc3OC2CO)ccc1O` (some centres unmarked) [SILIBININ] was tested, and the inhibition at 20000 µM was 2.14%.

Molecule `COC1=C[C@@H]2[C@@H]3Cc4ccc(OC)c(O)c4[C@]2(CCN3C)CC1=O` [SINOMENINE] has an inhibition at 20000 µM of 8%.

With `CN[C@@H]1[C@@H](O)[C@@H](O[C@@H]2[C@@H](O)[C@H](O[C@H]3OC(CN)=CC[C@H]3N)[C@@H](N)C[C@H]2N)OC[C@]1(C)O` [SISOMICIN] the inhibition at 20000 µM was 19%.

With `C[C@H](CCC(=O)[O-])[C@H]1CC[C@H]2[C@@H]3C(=O)C[C@@H]4CC(=O)CC[C@]4(C)[C@H]3CC(=O)[C@]12C.[Na+]` [SODIUM DEHYDROCHOLATE] the “20mM inhibition LmjIPCS” value was -6.4%.

For `CC(=O)N[C@@H](CC(=O)N[C@@H](CCC(=O)O)C(=O)O)C(=O)O` [SPAGLUMIC ACID], the inhibition at 20000 µM was 1.82%.

`CN[C@@H]1[C@H](O)[C@H](NC)[C@H]2O[C@@]3(O)C(=O)C[C@@H](C)O[C@H]3O[C@@H]2[C@H]1O` [SPECTINOMYCIN] was tested, and the inhibition at 20000 µM was 19%.

`NCCCCNCCCN` [SPERMIDINE] was tested, and the inhibition at 20000 µM was 12%.

Work on `O=C(CCCN1CCC2(CC1)C(=O)NCN2c1ccccc1)c1ccc(F)cc1` [SPIPERONE] yielded an inhibition (NINDS set screen) of -6%.

`CC(=O)S[C@@H]1CC2=CC(=O)CC[C@]2(C)[C@H]2CC[C@@]3(C)[C@@H](CC[C@@]34CCC(=O)O4)[C@H]12` [SPIRONOLACTONE] gave an inhibition (NINDS set screen) of -1.06%.

In the case of `[H]/N=C(/N)N[C@H]1[C@H](O)[C@@H](O)[C@H](O[C@@H]2O[C@@H](C)[C@](O)(C=O)[C@H]2O[C@@H]2O[C@@H](CO)[C@H](O)[C@@H](O)[C@@H]2NC)[C@@H](N/C(N)=N\[H])[C@@H]1O` [STREPTOMYCIN], the inhibition is reported as -0.116%.

`O=C1C[C@@H]2OCC=C3CN4CC[C@]56c7ccccc7N1[C@H]5[C@H]2[C@H]3C[C@H]46` [STRYCHNINE] was tested, and the inhibition at 20000 µM was 3%.

`Nc1ccc(S(=O)(=O)NC(=O)c2ccccc2)cc1` [SULFABENZAMIDE] gave an inhibition (NINDS set screen) of -6%.

`CC(=O)NS(=O)(=O)c1ccc(N)cc1` [SULFACETAMIDE] was tested, and the inhibition at 20000 µM was -1.63%.

`Nc1ccc(S(=O)(=O)Nc2ccc(Cl)nn2)cc1` [SULFACHLORPYRIDAZINE] was tested, and the inhibition (NINDS set screen) was 23%.

Work on `Nc1ccc(S(=O)(=O)Nc2ncccn2)cc1` [SULFADIAZINE] yielded an inhibition at 20000 µM of 18%.

Work on `COc1cc(NS(=O)(=O)c2ccc(N)cc2)nc(OC)n1` [SULFADIMETHOXINE] yielded an inhibition of 15%.

`[H]/N=C(/N)NS(=O)(=O)c1ccc(N)cc1` [SULFAGUANIDINE] gave an inhibition at 20000 µM of -1.62%.

With `Cc1ccnc(NS(=O)(=O)c2ccc(N)cc2)n1` [SULFAMERAZINE] the inhibition at 20000 µM was 3.51%.

In the case of `Cc1cc(C)nc(NS(=O)(=O)c2ccc(N)cc2)n1` [SULFAMETHAZINE], the inhibition is reported as 1.49%.

In the case of `COc1ccc(NS(=O)(=O)c2ccc(N)cc2)nn1` [SULFAMETHOXYPYRIDAZINE], the inhibition is reported as -15%.

For `Nc1ccc(S(N)(=O)=O)cc1` [SULFANILAMIDE], the inhibition at 20000 µM was -1.19%.

Work on `Nc1ccc(S(=O)(=O)Nc2ccnn2-c2ccccc2)cc1` [SULFAPHENAZOLE] yielded an inhibition (NINDS set screen) of 0.104%.

With `Nc1ccc(S(=O)(=O)Nc2ccccn2)cc1` [SULFAPYRIDINE] the inhibition at 20000 µM was -1.38%.

In the case of `O=C(O)c1cc(/N=N/c2ccc(S(=O)(=O)Nc3ccccn3)cc2)ccc1O` [SULFASALAZINE], the inhibition is reported as 1.8%.

For `Nc1ccc(S(=O)(=O)Nc2nccs2)cc1` [SULFATHIAZOLE], the “20mM inhibition LmjIPCS” value [1] was 35%.

`O=C1C(CC[S+]([O-])c2ccccc2)C(=O)N(c2ccccc2)N1c1ccccc1` (centres unmarked) [SULFINPYRAZONE] was tested, and the inhibition was -6%.

`Cc1noc(NS(=O)(=O)c2ccc(N)cc2)c1C` [SULFISOXAZOLE] was tested, and the inhibition was 20%.

In the case of `CCN1CCCC1CNC(=O)c1cc(S(N)(=O)=O)ccc1OC` (centres unmarked) [SULPIRIDE], the “20mM inhibition LmjIPCS” value is reported as 43%.

`COC(=O)C(C)c1ccc(C(=O)c2cccs2)cc1` (centres unmarked) [SUPROFEN METHYL ESTER] gave an inhibition (NINDS set screen) of -10%.

Molecule `CC(C(=O)O)c1ccc(C(=O)c2cccs2)cc1` (centres unmarked) [SUPROFEN] has an inhibition at 20000 µM of 5%.

`CCCCC1(COC(=O)CCC(=O)O)C(=O)N(c2ccccc2)N(c2ccccc2)C1=O` [SUXIBUZONE] showed an inhibition of 7%.

`CNC(=N)NCCC[C@H](N)C(=O)O` [TARGININE] was tested, and the “20mM inhibition LmjIPCS” value was -2%.

`Cc1scc2c1N(C(=O)CN1CCN(C)CC1)c1ccccc1NC2=O` [TELENZEPINE] was tested, and the “20mM inhibition LmjIPCS” value was 35%.

`CC[C@H]1OC(=O)[C@H](C)C(=O)[C@H](C)[C@@H](O[C@@H]2O[C@H](C)C[C@H](N(C)C)[C@H]2O)[C@](C)(OC)C[C@@H](C)C(=O)[C@H](C)[C@H]2N(CCCCn3cnc(-c4cccnc4)c3)C(=O)O[C@]12C` [TELITHROMYCIN] showed an inhibition at 20000 µM of 3.66%.

`COc1cc([C@@H]2c3cc4c(cc3[C@@H](O[C@@H]3O[C@@H]5CO[C@@H](c6cccs6)O[C@H]5[C@H](O)[C@H]3O)[C@H]3COC(=O)[C@H]23)OCO4)cc(OC)c1O` [TENIPOSIDE] showed an inhibition of 23%.

`CN1C(C(=O)Nc2ccccn2)=C(O)c2sccc2S1(=O)=O` [TENOXICAM] was tested, and the inhibition was 7.55%.

In the case of `CC(C)(C)NCC(O)c1cc(O)cc(O)c1` (centres unmarked) [TERBUTALINE], the inhibition (screening of NINDS set, sheet Screen 1) is reported as 9%.

`CCCCNc1ccc(C(=O)OCCN(C)C)cc1` [TETRACAINE] showed an inhibition (NINDS set screen) of 18%.

`N#Cc1c(Cl)c(Cl)c(Cl)c(C#N)c1Cl` [TETRACHLOROISOPHTHALONITRILE] was tested, and the “20mM inhibition LmjIPCS” value (NINDS set screen, compound at 20mM (so in the source)) was 15%.

In the case of `CN(C)[C@@H]1C(O)=C(C(N)=O)C(=O)[C@@]2(O)C(O)=C3C(=O)c4c(O)cccc4[C@@](C)(O)[C@H]3C[C@@H]12` [TETRACYCLINE], the “20mM inhibition LmjIPCS” value is reported as 36%.

`COc1cc2c(cc1OC)[C@@H]1Cc3ccc(OC)c(OC)c3CN1CC2` [TETRAHYDROPALMATINE] was tested, and the inhibition was 29%.

In the case of `c1ccc2c(c1)CCCC2C1=NCCN1` (centres unmarked) [TETRAHYDROZOLINE], the inhibition at 20000 µM is reported as 8%.

For `COc1ccc2cc1Oc1ccc(cc1)C[C@H]1c3cc(c(OC)cc3CCN1C)Oc1c(OC)c(OC)cc3c1[C@H](C2)N(C)CC3` [TETRANDRINE], the “20mM inhibition LmjIPCS” value was 65%.

`Cn1cnc2c1c(=O)[nH]c(=O)n2C` [THEOBROMINE] showed an inhibition at 20000 µM of 24%.

`Cn1c(=O)c2[nH]cnc2n(C)c1=O` [THEOPHYLLINE] showed an inhibition at 20000 µM of 11%.

With `c1ccc2[nH]c(-c3cscn3)nc2c1` [THIABENDAZOLE] the “20mM inhibition LmjIPCS” value [1] was 41%.

`CS(=O)(=O)c1ccc([C@@H](O)[C@@H](CO)NC(=O)C(Cl)Cl)cc1` [THIAMPHENICOL] was tested, and the inhibition at 20000 µM was 0.377%.

With `Nc1nc2nc[nH]c2c(=S)[nH]1` [THIOGUANINE] the inhibition was 6%.

`S=P(N1CC1)(N1CC1)N1CC1` [THIOTEPA] showed an inhibition at 20000 µM of 11%.

`CN1CCN(CC/C=C2/c3ccccc3Sc3ccc(S(=O)(=O)N(C)C)cc32)CC1` [THIOTHIXENE] was tested, and the inhibition (NINDS set screen) was -24%.

For `NC(Cc1cc(I)c(Oc2cc(I)c(O)c(I)c2)c(I)c1)C(=O)O` (centres unmarked) [THYROXINE], the inhibition at 20000 µM was 12%.
